Columns and labels:
[1] = system: Venturia inaequalis; test: Control test of apple scab disease (sprayed young apple seedlings); type: in vivo; details: 125 ppm by mass spray, 12 to 14 days after inoculation
[2] = system: Fusarium graminearum; test: microbe, parasite or virus in culture; type: cell-based; details: 96 h, read-out: growth inhibition ratio
[3] = system: Colletotrichum acutatum; test: Fungicidal effect test against fungi causing apple anthracnose; details: 96 h, read-out: growth inhibition ratio
[4] = system: Botrytis cinerea; type: cell-based; details: 120 h, 25 ppm by volume, Vogel medium, 20° C., five days, dark, read-out: growth inhibition ratio
[5] = system: Botrytis cinerea; test: Control test of cucumber gray mold (sprayed young cucumber seedlings); type: in vivo; details: 96 h, four days after inoculation; for pest or weed control at 25 ppm: 25 ppm by mass spray; for pest or weed control at 125 ppm: 125 ppm by mass spray
Description: Then, the drug liquid was sprayed onto young cucumber seedlings cultivated in a nursery pot (variety “Jihai”-based, cotyledon stage), and then air-dried. […] They were left still in a moist room at 20° C. Four days after inoculation, leaves of the young cucumber seedlings were visually observed, and the control value was calculated from the lesion area ratio in accordance with the following equation. [formula]

[6] = system: Erysiphe graminis f.sp.tritici; test: Control test of wheat powdery mildew disease (sprayed young wheat seedlings); type: in vivo; details: Blumeria graminis, 144 h, 125 ppm by mass spray, six days after inoculation
[7] = system: Glomerella cingulata; test: Fungicidal effect test against fungi causing grape ripe rot disease; details: Colletotrichum gloeosporioides, 72 h, read-out: growth inhibition ratio

COC(=O)N(Cc1ccc2c(c1)CCC2)NC(=O)c1cc(C)ncc1Oc1cccc(C2CC2)c1F [b-127]
≥ 75%: pest or weed control at 125 ppm [1] | inhibition of growth at 25 ppm [2] | inhibition of growth at 25 ppm [3] | inhibition of growth at 25 ppm [4] | pest or weed control at 25 ppm [5] | pest or weed control at 125 ppm [5] | pest or weed control at 125 ppm [6] | inhibition of growth at 25 ppm [7]

COC(=O)N(Cc1ccc(OC)cc1C)NC(=O)c1ccncc1Oc1cccc(Br)c1F [b-148]
≥ 75%: pest or weed control at 125 ppm [1] | inhibition of growth at 25 ppm [2] | inhibition of growth at 25 ppm [3] | inhibition of growth at 25 ppm [4] | pest or weed control at 25 ppm [5] | pest or weed control at 125 ppm [5] | pest or weed control at 125 ppm [6] | inhibition of growth at 25 ppm [7]

COC(=O)N(Cc1ccc(C)cc1C)NC(=O)c1cc(OC)ncc1Oc1cccc(C2CC2)c1F [b-94]
≥ 75%: pest or weed control at 125 ppm [1] | inhibition of growth at 25 ppm [2] | inhibition of growth at 25 ppm [3] | inhibition of growth at 25 ppm [4] | pest or weed control at 25 ppm [5] | pest or weed control at 125 ppm [5] | pest or weed control at 125 ppm [6] | inhibition of growth at 25 ppm [7]

CCc1cc(C(=O)NN(Cc2ccc(OC)cc2C)C(=O)OC)c(Oc2cccc(C3CC3)c2F)nn1 [b-154]
≥ 75%: pest or weed control at 125 ppm [1] | inhibition of growth at 25 ppm [2] | inhibition of growth at 25 ppm [3] | inhibition of growth at 25 ppm [4] | pest or weed control at 25 ppm [5] | pest or weed control at 125 ppm [5] | pest or weed control at 125 ppm [6] | inhibition of growth at 25 ppm [7]

COC(=O)N(Cc1ccc(C)cc1C)NC(=O)c1cc(C)nnc1Oc1cccc(F)c1F [b-152]
≥ 75%: pest or weed control at 125 ppm [1] | inhibition of growth at 25 ppm [2] | inhibition of growth at 25 ppm [3] | inhibition of growth at 25 ppm [4] | pest or weed control at 25 ppm [5] | pest or weed control at 125 ppm [5] | pest or weed control at 125 ppm [6] | inhibition of growth at 25 ppm [7]

COC(=O)N(Cc1ccc(C)cc1C)NC(=O)c1cc(Cl)nnc1Oc1cccc(Cl)c1F [b-169]
≥ 75%: pest or weed control at 125 ppm [1] | inhibition of growth at 25 ppm [2] | inhibition of growth at 25 ppm [3] | inhibition of growth at 25 ppm [4] | pest or weed control at 125 ppm [5] | pest or weed control at 125 ppm [6] | inhibition of growth at 25 ppm [7]

COC(=O)N(Cc1ccc(C)cc1Cl)NC(=O)c1c(C)cnnc1Oc1cccc(C2CC2)c1F [b-177]
≥ 75%: pest or weed control at 125 ppm [1] | inhibition of growth at 25 ppm [2] | inhibition of growth at 25 ppm [3] | inhibition of growth at 25 ppm [4] | pest or weed control at 25 ppm [5] | pest or weed control at 125 ppm [5] | pest or weed control at 125 ppm [6] | inhibition of growth at 25 ppm [7]

COC(=O)N(Cc1ccc(C)cc1C)NC(=O)c1ccncc1Oc1cccc(Cl)c1F [b-187]
≥ 75%: pest or weed control at 125 ppm [1] | inhibition of growth at 25 ppm [2] | inhibition of growth at 25 ppm [3] | inhibition of growth at 25 ppm [4] | pest or weed control at 25 ppm [5] | pest or weed control at 125 ppm [5] | pest or weed control at 125 ppm [6] | inhibition of growth at 25 ppm [7]

COC(=O)N(Cc1ccc(C)cc1C)NC(=O)c1c(C)cnnc1Oc1cccc(Cl)c1F [b-191]
≥ 75%: pest or weed control at 125 ppm [1] | inhibition of growth at 25 ppm [2] | inhibition of growth at 25 ppm [3] | inhibition of growth at 25 ppm [4] | pest or weed control at 25 ppm [5] | pest or weed control at 125 ppm [5] | pest or weed control at 125 ppm [6] | inhibition of growth at 25 ppm [7]

COC(=O)N(Cc1ccc(C)cc1C)NC(=O)c1cc(C)ncc1Oc1cccc(C2CC2)c1F [b-16]
≥ 75%: pest or weed control at 125 ppm [1] | inhibition of growth at 25 ppm [2] | inhibition of growth at 25 ppm [3] | inhibition of growth at 25 ppm [4] | pest or weed control at 25 ppm [5] | pest or weed control at 125 ppm [5] | pest or weed control at 125 ppm [6] | inhibition of growth at 25 ppm [7]

COC(=O)N(Cc1ccc(OC)cc1C)NC(=O)c1cc(Cl)nnc1Oc1cccc(Cl)c1F [b-170]
≥ 75%: pest or weed control at 125 ppm [1] | inhibition of growth at 25 ppm [2] | inhibition of growth at 25 ppm [3] | inhibition of growth at 25 ppm [4] | pest or weed control at 125 ppm [5] | pest or weed control at 125 ppm [6] | inhibition of growth at 25 ppm [7]

COC(=O)N(Cc1ccc(C)cc1C)NC(=O)c1ccncc1Oc1cccc(Br)c1F [b-147]
≥ 75%: pest or weed control at 125 ppm [1] | inhibition of growth at 25 ppm [2] | inhibition of growth at 25 ppm [3] | inhibition of growth at 25 ppm [4] | pest or weed control at 25 ppm [5] | pest or weed control at 125 ppm [5] | pest or weed control at 125 ppm [6] | inhibition of growth at 25 ppm [7]

COC(=O)N(Cc1ccc(C)cc1C)NC(=O)c1cc(C)nnc1Oc1cccc(C2CC2)c1 [b-80]
≥ 75%: pest or weed control at 125 ppm [1] | inhibition of growth at 25 ppm [2] | inhibition of growth at 25 ppm [3] | inhibition of growth at 25 ppm [4] | pest or weed control at 25 ppm [5] | pest or weed control at 125 ppm [5] | pest or weed control at 125 ppm [6] | inhibition of growth at 25 ppm [7]

COC(=O)N(Cc1ccc(C)cc1C)NC(=O)c1c(Oc2cccc(C3CC3)c2F)nnc(Cl)c1C [b-15]
≥ 75%: pest or weed control at 125 ppm [1] | inhibition of growth at 25 ppm [2] | inhibition of growth at 25 ppm [3] | inhibition of growth at 25 ppm [4] | pest or weed control at 25 ppm [5] | pest or weed control at 125 ppm [5] | pest or weed control at 125 ppm [6] | inhibition of growth at 25 ppm [7]

COC(=O)N(Cc1ccc(C)cc1C)NC(=O)c1ccncc1Oc1cccc(C2CC2)c1F [b-150]
≥ 75%: pest or weed control at 125 ppm [1] | inhibition of growth at 25 ppm [2] | inhibition of growth at 25 ppm [3] | inhibition of growth at 25 ppm [4] | pest or weed control at 25 ppm [5] | pest or weed control at 125 ppm [5] | pest or weed control at 125 ppm [6] | inhibition of growth at 25 ppm [7]

COC(=O)N(Cc1ccc(C)cc1C)NC(=O)c1cc(C)nnc1Oc1csc(C(F)(F)F)c1 [b-124, Methyl 1-(2,4-dimethylbenzyl)-2-(6-methyl-3-((5-(trifluoromethyl)thiophen-3-yl)oxy)pyridazine-4-carbonyl)hydrazine-1-carboxylate]
≥ 75%: pest or weed control at 125 ppm [1] | inhibition of growth at 25 ppm [2] | inhibition of growth at 25 ppm [3] | inhibition of growth at 25 ppm [4] | pest or weed control at 125 ppm [5] | pest or weed control at 125 ppm [6] | inhibition of growth at 25 ppm [7]

COC(=O)N(Cc1ccc(C)cc1C)NC(=O)c1nc(C)ncc1Oc1cccc(C2CC2)c1F [b-42, Methyl 2-(5-(3-cyclopropyl-2-fluorophenoxy)-2-methylpyrimidine-4-carbonyl)-1-(2,4-dimethylbenzyl)hydrazine-1-carboxylate]
≥ 75%: pest or weed control at 125 ppm [1] | inhibition of growth at 25 ppm [2] | inhibition of growth at 25 ppm [3] | inhibition of growth at 25 ppm [4] | pest or weed control at 25 ppm [5] | pest or weed control at 125 ppm [5] | pest or weed control at 125 ppm [6] | inhibition of growth at 25 ppm [7]

COC(=O)N(Cc1ccc(C)cc1C)NC(=O)c1c(C)cncc1Oc1cccc(C2CC2)c1 [b-149]
≥ 75%: pest or weed control at 125 ppm [1] | inhibition of growth at 25 ppm [2] | inhibition of growth at 25 ppm [3] | inhibition of growth at 25 ppm [4] | pest or weed control at 25 ppm [5] | pest or weed control at 125 ppm [5] | pest or weed control at 125 ppm [6] | inhibition of growth at 25 ppm [7]

COC(=O)N(Cc1ccc(Cl)cc1Cl)NC(=O)c1cc(C)ncc1Oc1cccc(C2CC2)c1F [b-75]
≥ 75%: pest or weed control at 125 ppm [1] | inhibition of growth at 25 ppm [2] | inhibition of growth at 25 ppm [3] | inhibition of growth at 25 ppm [4] | pest or weed control at 25 ppm [5] | pest or weed control at 125 ppm [5] | pest or weed control at 125 ppm [6] | inhibition of growth at 25 ppm [7]

CCOC(=O)N(Cc1ccc(C)cc1C)NC(=O)c1nc(C)ncc1Oc1cccc(C2CC2)c1F [b-43]
≥ 75%: pest or weed control at 125 ppm [1] | inhibition of growth at 25 ppm [2] | inhibition of growth at 25 ppm [3] | inhibition of growth at 25 ppm [4] | pest or weed control at 25 ppm [5] | pest or weed control at 125 ppm [5] | pest or weed control at 125 ppm [6] | inhibition of growth at 25 ppm [7]

COC(=O)N(Cc1ccc(C)cc1Cl)NC(=O)c1cc(C)nnc1Oc1cccc(C2CC2)c1F [b-46]
≥ 75%: pest or weed control at 125 ppm [1] | inhibition of growth at 25 ppm [2] | inhibition of growth at 25 ppm [3] | inhibition of growth at 25 ppm [4] | pest or weed control at 25 ppm [5] | pest or weed control at 125 ppm [5] | pest or weed control at 125 ppm [6] | inhibition of growth at 25 ppm [7]

Cc1cccc(Oc2nnc(C)cc2C(=O)NN(Cc2ccc(C)cc2C)C(=O)O)c1 [b-117]
≥ 75%: pest or weed control at 125 ppm [1] | inhibition of growth at 25 ppm [2] | inhibition of growth at 25 ppm [3] | inhibition of growth at 25 ppm [4] | pest or weed control at 25 ppm [5] | pest or weed control at 125 ppm [5] | pest or weed control at 125 ppm [6] | inhibition of growth at 25 ppm [7]

COC(=O)N(Cc1ccc(C)cc1C)NC(=O)c1c(Cl)cncc1Oc1cccc(Cl)c1F [b-231]
≥ 75%: pest or weed control at 125 ppm [1] | inhibition of growth at 25 ppm [2] | inhibition of growth at 25 ppm [3] | inhibition of growth at 25 ppm [4] | pest or weed control at 25 ppm [5] | pest or weed control at 125 ppm [5] | pest or weed control at 125 ppm [6] | inhibition of growth at 25 ppm [7]

Reference: patent US20260198493A1, “HYDRAZIDE COMPOUND AND AGRICULTURAL/HORTICULTURAL FUNGICIDE” (Nippon Soda Co., Ltd., priority 2022, published 2026)
